# The source made the active and inactive calls. No cut-off for these calls is given here.
# Experiments:
# mTORC1 (Homo sapiens) [1] = molecular target: T1, mTORC1 (Homo sapiens) (UniProt P42345+Q8N122+Q9BVC4); experiment: Inhibition of mTORC1 in human LY7 cells assessed as reduction in c-Myc expression at 3 uM measured after 24 hrs in presence of bortezomib by Western blot analysis; type: cell-based
# MZL = experiment: Induction of apoptosis in human MZL cells assessed as increase in cleaved-PARP expression at 5 uM measured after 24 hrs in presence of bortezomib by Western blot analysis; type: functional, cell-based
# mTORC1 (Homo sapiens) [2] = molecular target: T1, mTORC1 (Homo sapiens); experiment: Inhibition of mTORC1 in human SLL cells assessed as reduction in c-Myc expression at 5 uM measured after 24 hrs in presence of bortezomib by Western blot analysis; type: cell-based
# mTORC1 (Homo sapiens) [3] = molecular target: T1, mTORC1 (Homo sapiens); experiment: Inhibition of mTORC1 in human SLL cells assessed as reduction in 4E-BP1 phosphorylation at 5 uM measured after 24 hrs in presence of bortezomib by Western blot analysis; type: cell-based
# OCI-Ly10 = experiment: Induction of apoptosis in human LY10 cells assessed as increase in cleaved-PARP expression at 3 uM measured after 24 hrs in presence of bortezomib by Western blot analysis; type: functional, cell-based
# CLL cell = experiment: Induction of apoptosis in human CLL cells assessed as increase in cleaved-PARP expression at 5 uM measured after 24 hrs in presence of bortezomib by Western blot analysis; type: functional, cell-based
# mTORC1 (Homo sapiens) [4] = molecular target: T1, mTORC1 (Homo sapiens); experiment: Inhibition of mTORC1 in human CLL cells assessed as reduction in 4E-BP1 phosphorylation at 5 uM measured after 24 hrs in presence of bortezomib by Western blot analysis; type: cell-based; settings: CLL cell
# [5] = molecular target: Myc proto-oncogene protein (Homo sapiens) (UniProt P01106); experiment: Inhibition of c-Myc in human LY10 cells assessed as reduction in E2F1 expression at 3 uM incubated for 24 hrs in presence of bortezomib by Western blot analysis; type: cell-based
# [6] = molecular target: Myc proto-oncogene protein (Homo sapiens) (UniProt P01106); experiment: Inhibition of c-Myc in human LY7 cells assessed as reduction in eIF4B expression at 3 uM incubated for 24 hrs in presence of carfilzomib by Western blot analysis; type: cell-based
# [7] = molecular target: T2, Phosphatidylinositol 4,5-bisphosphate 3-kinase catalytic subunit delta isoform (Homo sapiens) (UniProt O00329); experiment: Inhibition of PI3Kdelta in human HL-60 cells assessed as reduction in AKT phosphorylation at S473 residue at 1 uM measured after 4 hrs relative to control; type: cell-based
# T2 sequence (whole entry): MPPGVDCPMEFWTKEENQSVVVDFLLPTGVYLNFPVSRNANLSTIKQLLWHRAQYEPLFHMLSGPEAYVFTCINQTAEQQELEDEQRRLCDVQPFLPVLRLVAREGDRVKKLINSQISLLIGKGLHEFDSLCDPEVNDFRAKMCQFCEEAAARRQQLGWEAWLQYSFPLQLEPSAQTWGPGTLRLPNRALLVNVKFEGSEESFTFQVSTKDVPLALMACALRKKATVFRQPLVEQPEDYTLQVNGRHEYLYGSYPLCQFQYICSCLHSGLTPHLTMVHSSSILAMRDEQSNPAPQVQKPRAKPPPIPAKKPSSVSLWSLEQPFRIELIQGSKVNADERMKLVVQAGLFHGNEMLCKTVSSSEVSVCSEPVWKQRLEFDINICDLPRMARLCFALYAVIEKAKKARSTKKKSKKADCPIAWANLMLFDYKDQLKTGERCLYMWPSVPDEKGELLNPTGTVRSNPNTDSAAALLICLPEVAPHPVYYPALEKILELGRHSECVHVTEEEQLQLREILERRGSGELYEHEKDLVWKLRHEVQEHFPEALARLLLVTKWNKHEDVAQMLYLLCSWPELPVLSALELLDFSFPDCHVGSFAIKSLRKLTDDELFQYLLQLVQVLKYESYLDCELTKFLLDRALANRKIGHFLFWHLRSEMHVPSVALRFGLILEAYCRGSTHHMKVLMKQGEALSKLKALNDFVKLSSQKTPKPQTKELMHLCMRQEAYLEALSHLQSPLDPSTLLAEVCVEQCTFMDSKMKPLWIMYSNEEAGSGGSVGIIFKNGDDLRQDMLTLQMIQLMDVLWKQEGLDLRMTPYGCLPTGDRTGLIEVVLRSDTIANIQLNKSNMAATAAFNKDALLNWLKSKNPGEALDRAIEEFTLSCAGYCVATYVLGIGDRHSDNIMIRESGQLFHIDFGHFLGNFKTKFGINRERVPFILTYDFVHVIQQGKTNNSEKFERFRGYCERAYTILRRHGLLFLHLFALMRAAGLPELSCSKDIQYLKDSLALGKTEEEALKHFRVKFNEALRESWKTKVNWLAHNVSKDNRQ
# mTORC1 (Homo sapiens) [8] = molecular target: T1, mTORC1 (Homo sapiens); experiment: Inhibition of mTORC1 in human LY7 cells assessed as reduction in c-Myc mRNA expression at 3 uM measured after 24 hrs in presence of carfilzomib; type: cell-based
# LY7 [9] = experiment: Inhibition of PI3Kdelta/CK1epsilon in human LY7 cells assessed as reduction in c-Myc expression at 15 to 50 uM measured after 24 hrs by Western blot analysis; type: cell-based; settings: dose 15-50 µM
# LY7 [10] = experiment: Inhibition of PI3Kdelta/CK1epsilon in human LY7 cells assessed as reduction in 4E-BP1 phosphorylation at 25 uM incubated for 24 hrs by Western blot analysis; type: cell-based
# OCILY7 = experiment: Inhibition of PI3Kdelta/CK1epsilon in human OCILY7 cells transfected with c-Myc-expressing plasmid (M+) assessed as reduction in c-Myc expression at 7.5 to 25 uM measured after 24 hrs by Western blot analysis; type: cell-based; settings: dose 7.5-25 µM
# mTORC1 (Homo sapiens) [11] = molecular target: T1, mTORC1 (Homo sapiens); experiment: Inhibition of mTORC1 in human OCILY7 cells transfected with empty vector assessed as reduction in endogenous c-Myc expression at 3 to 5 uM incubated for 24 hrs in presence of carfilzomib by Western blot analysis; type: cell-based; settings: dose 3-5 µM
# mTORC1 (Homo sapiens) [12] = molecular target: T1, mTORC1 (Homo sapiens); experiment: Inhibition of mTORC1 in human LY7 cells assessed as reduction in 4E-BP1 phosphorylation at 3 uM measured after 24 hrs in presence of carfilzomib by Western blot analysis; type: cell-based
# mTORC1 (Homo sapiens) [13] = molecular target: T1, mTORC1 (Homo sapiens); experiment: Inhibition of mTORC1 in human OCILY7 cells transfected with c-myc-5'-UTR-luciferase construct assessed as reduction in c-myc translation at 3 to 5 uM incubated for 24 hrs in presence of carfilzomib by luciferase reporter gene assay; type: cell-based; settings: dose 3-5 µM
# [14] = molecular target: T2, Phosphatidylinositol 4,5-bisphosphate 3-kinase catalytic subunit delta isoform (Homo sapiens); experiment: Inhibition of PI3Kdelta in human Jurkat cells assessed as reduction in AKT phosphorylation at S473 residue at 1 uM measured after 4 hrs relative to control; type: cell-based
# [15] = molecular target: Myc proto-oncogene protein (Homo sapiens) (UniProt P01106); experiment: Inhibition of c-Myc in human LY10 cells assessed as reduction in E2F1 expression at 3 uM incubated for 24 hrs in presence of carfilzomib by Western blot analysis; type: cell-based
# [16] = molecular target: T2, Phosphatidylinositol 4,5-bisphosphate 3-kinase catalytic subunit delta isoform (Homo sapiens); experiment: Inhibition of PI3Kdelta in human DB cells assessed as reduction in AKT phosphorylation at S473 residue measured after 4 hrs; type: cell-based; settings: dose 10-10000 nM
# mTORC1 (Homo sapiens) [17] = molecular target: T1, mTORC1 (Homo sapiens); experiment: Inhibition of mTORC1 in human CLL cells assessed as reduction in c-Myc expression at 5 uM measured after 24 hrs in presence of carfilzomib by Western blot analysis; type: cell-based; settings: CLL cell
# NCI-H929 = experiment: Cytotoxicity against human NCI-H929 cells transduced with an eIF4E-overexpressing plasmid assessed as reduction in cell viability at 5 uM incubated for 24 hrs in presence of carfilzomib by cell-titer glo assay; type: functional, cell-based
# Chain of Myc proto-oncogene protein (Homo sapiens) (P01106 whole entry, canonical isoform): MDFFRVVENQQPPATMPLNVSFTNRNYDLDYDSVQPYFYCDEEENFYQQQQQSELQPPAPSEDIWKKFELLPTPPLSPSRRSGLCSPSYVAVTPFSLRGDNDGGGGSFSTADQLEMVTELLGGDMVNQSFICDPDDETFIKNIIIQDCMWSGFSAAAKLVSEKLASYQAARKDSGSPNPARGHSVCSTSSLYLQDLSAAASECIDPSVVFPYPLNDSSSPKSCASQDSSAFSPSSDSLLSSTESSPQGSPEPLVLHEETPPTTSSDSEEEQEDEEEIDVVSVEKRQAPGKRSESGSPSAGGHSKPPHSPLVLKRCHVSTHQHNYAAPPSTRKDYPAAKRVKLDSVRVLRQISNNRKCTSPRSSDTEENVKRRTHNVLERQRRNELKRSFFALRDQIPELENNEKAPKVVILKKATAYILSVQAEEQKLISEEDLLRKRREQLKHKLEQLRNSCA
# T1 sequence (Q8N122 whole entry, looked up, other chains not shown): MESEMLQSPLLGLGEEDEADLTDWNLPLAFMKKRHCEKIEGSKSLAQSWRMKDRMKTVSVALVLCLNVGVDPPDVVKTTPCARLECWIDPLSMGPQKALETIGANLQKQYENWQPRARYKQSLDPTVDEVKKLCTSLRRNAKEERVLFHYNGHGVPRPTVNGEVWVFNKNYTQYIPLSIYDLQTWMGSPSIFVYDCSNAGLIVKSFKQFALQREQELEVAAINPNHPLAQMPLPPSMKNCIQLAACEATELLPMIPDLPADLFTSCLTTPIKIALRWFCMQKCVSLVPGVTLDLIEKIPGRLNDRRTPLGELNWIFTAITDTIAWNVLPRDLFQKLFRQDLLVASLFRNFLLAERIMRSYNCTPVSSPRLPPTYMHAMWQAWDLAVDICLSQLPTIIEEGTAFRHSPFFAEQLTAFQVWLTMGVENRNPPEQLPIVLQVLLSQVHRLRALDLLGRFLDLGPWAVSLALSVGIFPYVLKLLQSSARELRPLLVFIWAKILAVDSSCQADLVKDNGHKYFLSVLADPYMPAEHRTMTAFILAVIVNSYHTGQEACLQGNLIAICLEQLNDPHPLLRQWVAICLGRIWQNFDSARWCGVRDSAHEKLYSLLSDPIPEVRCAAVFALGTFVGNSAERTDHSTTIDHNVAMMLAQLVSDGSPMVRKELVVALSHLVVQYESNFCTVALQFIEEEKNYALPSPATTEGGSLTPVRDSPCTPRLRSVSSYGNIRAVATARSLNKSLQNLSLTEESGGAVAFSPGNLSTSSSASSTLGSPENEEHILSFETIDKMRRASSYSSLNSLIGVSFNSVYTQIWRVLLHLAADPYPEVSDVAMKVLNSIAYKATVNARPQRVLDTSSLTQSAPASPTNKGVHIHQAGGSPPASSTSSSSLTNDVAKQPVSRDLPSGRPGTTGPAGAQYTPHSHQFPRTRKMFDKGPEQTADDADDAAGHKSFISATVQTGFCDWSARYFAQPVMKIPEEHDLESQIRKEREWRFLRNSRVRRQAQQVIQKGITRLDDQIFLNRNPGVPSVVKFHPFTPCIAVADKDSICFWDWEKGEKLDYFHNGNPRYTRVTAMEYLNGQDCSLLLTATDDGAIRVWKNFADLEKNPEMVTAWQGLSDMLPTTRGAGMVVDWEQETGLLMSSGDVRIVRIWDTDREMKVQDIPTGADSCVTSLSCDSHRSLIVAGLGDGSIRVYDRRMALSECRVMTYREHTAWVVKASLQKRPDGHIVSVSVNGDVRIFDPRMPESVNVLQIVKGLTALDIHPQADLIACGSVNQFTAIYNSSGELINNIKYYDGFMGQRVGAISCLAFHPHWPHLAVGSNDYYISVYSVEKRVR
# T1 sequence (Q9BVC4 whole entry, looked up, other chains not shown): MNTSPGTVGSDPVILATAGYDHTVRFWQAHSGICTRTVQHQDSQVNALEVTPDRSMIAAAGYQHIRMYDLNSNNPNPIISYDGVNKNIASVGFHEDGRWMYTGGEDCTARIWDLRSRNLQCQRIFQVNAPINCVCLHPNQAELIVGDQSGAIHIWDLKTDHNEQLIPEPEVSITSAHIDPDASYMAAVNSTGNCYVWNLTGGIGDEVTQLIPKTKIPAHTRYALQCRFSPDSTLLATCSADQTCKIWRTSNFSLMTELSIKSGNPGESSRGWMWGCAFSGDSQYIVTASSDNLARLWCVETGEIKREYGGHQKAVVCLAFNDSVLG
smiles,measurement,setting,value
CC[C@H](Nc1ncnc2[nH]cnc12)c1nc2cccc(F)c2c(=O)n1-c1ccccc1,inhibition,mTORC1 (Homo sapiens) [1],inactive
same,Activity,MZL,Active
same,inhibition,mTORC1 (Homo sapiens) [2],inactive
same,inhibition,mTORC1 (Homo sapiens) [3],inactive
same,Activity,OCI-Ly10,Active
same,Activity,CLL cell,Active
same,inhibition,mTORC1 (Homo sapiens) [4],inactive
same,inhibition,[5],inactive
CC(C)Oc1ccc(-c2nn([C@@H](C)c3oc4ccc(F)cc4c(=O)c3-c3cccc(F)c3)c3ncnc(N)c23)cc1F [UMBRALISIB],inhibition,[6],Active
same,inhibition,[7],43%
same,inhibition,mTORC1 (Homo sapiens) [8],inactive
same,inhibition,LY7 [9],Active
same,inhibition,LY7 [10],Active
same,inhibition,OCILY7,inactive
same,inhibition,mTORC1 (Homo sapiens) [11],Active
same,inhibition,mTORC1 (Homo sapiens) [12],Active
same,inhibition,mTORC1 (Homo sapiens) [13],Active
same,inhibition,[14],43%
same,inhibition,[15],Active
same,inhibition,[16],Dose-Dependent Effect
same,inhibition,mTORC1 (Homo sapiens) [17],Active
same,Activity,NCI-H929,inactive

# From ChEMBL document CHEMBL5715954, “Silencing c-Myc translation as a therapeutic strategy through targeting PI3Kδ and CK1ε in hematological malignancies” (Blood, 2017)
